What is called IC50 is the point on the concentration scale where inhibition reaches its midpoint. The low end stands for higher potency, the high end for lower potency.

This is an account of results in patent US20060069084A1, “Methods of inhibiting kinases” (priority 2001, published 2006).

Some results are limits rather than exact numbers.

What all share (assay type): biochemical
What all share (conditions): inhibit 50% of activity at 50 μM

Assay [1] concerns the target T1, JAK1 (Homo sapiens, UniProt P23458).
T1 construct: The kinase domain of humanJAK1 was amplified from U937mRNA; His tag (from pFastBac HTb vector; nickel chelate purification) (N); made in house; host or cells: baculovirus; virus made in Sf9, large-scale expression in High Five insect cells
Description: JAK1 kinase domain capture-based ELISA kinase assay. The protocol:
(§1) For screening purposes, compounds were diluted in 96 well plates at a concentration of 50 μM or 20 μM. Plates were warmed at 37° C. for 30 minutes before assay.
The kinase domain of humanJAK1 was amplified from U937mRNA using the polymerase chain reaction with the following primers: […]
JAK1 PCR products were cloned into the pFastBac HTb expression vector (Gibco) via the Xho I and Kpn I sites. The JAK1 plasmid was then transformed into competent DH10Bac cells (Gibco), and the recombinant baculovirus produced prepared for transfection into Sf9 insect cells.
(§2) Baculovirus preparations from each of the JAK family members were infected into five litres of High Five cells (Invitrogen) grown in High Five serum free medium (Invitrogen) to a cell density of approximately 1-2×10^6 cells/ml. Cells are infected with virus at a MOI of 0.8-3.0. Cells were harvested and lysed. JAK kinase domains were purified by affinity chromatography on a Probond (Invitrogen) nickel chelate affinity column.
(§3) The biotinylated substrate biotin-EGPWLEEEEEAYGWMDF-NH2 (SEQ ID NO:9) (final concentration 5 μM) was used as substrate, and tyrosine phosphorylation was quantitated following transfer to an avidin coated ELISA plate using peroxidase-linked anti-phospho-tyrosine antibody PY20.
(§4) Inhibitors were added to the assays fifteen minutes prior to the addition of ATP. Inhibitors were added in aqueous DMSO, with DMSO concentrations never exceeding 1%.
In general terms: ELISA stands for enzyme-linked immunosorbent assay.

The target in assay [2] is T2, TYK2 (Homo sapiens, UniProt P29597).
T2 construct: The kinase domain of humanTYK2 was amplified from A549 mRNA; His tag (from pBlueBacHis2A vector; nickel chelate purification) (N); made in house; host or cells: baculovirus; virus made in Sf9, large-scale expression in High Five insect cells
T2 sequence (P29597 897-1176 limits assumed): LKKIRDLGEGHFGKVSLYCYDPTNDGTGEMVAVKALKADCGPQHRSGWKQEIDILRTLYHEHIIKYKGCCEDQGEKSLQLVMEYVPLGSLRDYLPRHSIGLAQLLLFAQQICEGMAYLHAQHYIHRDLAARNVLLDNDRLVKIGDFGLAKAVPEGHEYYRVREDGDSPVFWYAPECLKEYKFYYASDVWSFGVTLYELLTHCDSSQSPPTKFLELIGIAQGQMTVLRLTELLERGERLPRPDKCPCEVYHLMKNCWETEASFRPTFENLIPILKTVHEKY
Nature of the assay: TYK2 kinase domain capture-based ELISA kinase assay. The protocol:
as §1
The kinase domain of humanTYK2 was amplified from A549 mRNA using the polymerase chain reaction with the following primers: […]
TYK2 PCR products were cloned into pBlueBacHis2A (Invitrogen) via the EcoRI site. The recombinant TYK2 baculovirus produced was prepared for transfected into Sf9 insect cells.
as §2, §3, §4

For assay [3], the target named is T3, JAK3 (Homo sapiens, UniProt P52333).
T3 construct: The kinase domain of humanJAK3 was amplified from U937mRNA; His tag (from pFastBac HTb vector; nickel chelate purification) (N); made in house; host or cells: baculovirus; virus made in Sf9, large-scale expression in High Five insect cells
T3 sequence (P52333 822-1111 limits assumed): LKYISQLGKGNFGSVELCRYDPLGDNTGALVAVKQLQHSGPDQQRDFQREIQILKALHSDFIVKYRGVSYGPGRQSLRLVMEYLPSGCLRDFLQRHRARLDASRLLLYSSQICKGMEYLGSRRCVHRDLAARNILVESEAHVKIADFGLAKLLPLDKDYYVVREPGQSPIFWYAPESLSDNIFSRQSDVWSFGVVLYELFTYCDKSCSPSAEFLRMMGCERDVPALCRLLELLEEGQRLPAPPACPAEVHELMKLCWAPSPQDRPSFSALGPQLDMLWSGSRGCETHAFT
Nature of the assay: JAK3 kinase domain capture-based ELISA kinase assay. The protocol:
as §1
The kinase domain of humanJAK3 was amplified from U937mRNA using the polymerase chain reaction with the following primers: […]
JAK3 PCR products were cloned into the pFastBac HTb expression vector (Gibco) via the Xho I and Kpn I sites. The JAK3 plasmid was then transformed into competent DH10Bac cells (Gibco), and the recombinant baculovirus produced prepared for transfection into Sf9 insect cells.
as §2, §3, §4

Assay [4] deals with T4, JAK2 (Homo sapiens, UniProt O60674).
T4 construct: The kinase domain of humanJAK2 was amplified from U937mRNA; His tag (from pFastBac HTc vector; nickel chelate purification) (N); made in house; host or cells: baculovirus; virus made in Sf9, large-scale expression in High Five insect cells
T4 sequence (O60674 849-1124 limits assumed): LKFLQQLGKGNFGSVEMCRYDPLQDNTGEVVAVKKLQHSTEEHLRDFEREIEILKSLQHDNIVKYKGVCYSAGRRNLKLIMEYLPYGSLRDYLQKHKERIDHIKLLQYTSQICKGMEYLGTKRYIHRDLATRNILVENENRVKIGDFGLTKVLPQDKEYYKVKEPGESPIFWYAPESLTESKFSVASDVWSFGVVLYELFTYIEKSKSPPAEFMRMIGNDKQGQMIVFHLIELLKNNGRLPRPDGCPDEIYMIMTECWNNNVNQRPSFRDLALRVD
Description: JAK2 kinase domain capture-based ELISA kinase assay. The protocol: as §1
The kinase domain of humanJAK2 was amplified from U937mRNA using the polymerase chain reaction with the following primers: […]
JAK2 PCR products were cloned into the pFastBac HTc expression vector (Gibco) via the Sal I and Not I sites. The JAK2 plasmid was then transformed into competent DH10Bac cells (Gibco), and the recombinant baculovirus produced prepared for transfection into Sf9 insect cells.
as §2, §3, §4

T1 sequence (P23458 875-1153 limits assumed): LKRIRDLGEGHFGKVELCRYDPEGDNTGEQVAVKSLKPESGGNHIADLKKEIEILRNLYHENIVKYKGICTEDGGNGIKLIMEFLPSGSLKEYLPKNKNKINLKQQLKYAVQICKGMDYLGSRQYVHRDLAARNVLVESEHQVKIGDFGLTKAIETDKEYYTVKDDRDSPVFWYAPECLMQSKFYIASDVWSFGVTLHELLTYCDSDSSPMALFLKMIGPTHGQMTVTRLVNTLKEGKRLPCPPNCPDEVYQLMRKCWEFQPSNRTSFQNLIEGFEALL

Regarding `C[C@@H](Nc1cncc(-c2cccc(N)c2)n1)c1ccccc1` [CYT31106], the IC50 in assay [1] (Table 3), in assay [2] (Table 3), in assay [3] (Table 3) and in assay [4] (Table 3) was less than 50 µM each time.
`COc1cc(-c2cn3ccnc3c(N3CCCN(C)CC3)n2)cc(OC)c1OC`: the IC50 in assay [1] (Table 5), in assay [2] (Table 5), in assay [3] (Table 5) and in assay [4] (Table 5) was less than 50 µM in each case.
As to `CCN(CCO)c1ccc(Nc2nc(-c3ccccc3Cl)cn3ccnc23)cc1`, the IC50 in assay [1] (Table 6), in assay [2] (Table 6), in assay [3] (Table 6) and in assay [4] (Table 6) was less than 50 µM each time.
Take `FC(F)(F)c1cc(-c2cn3ccnc3c(NCC3CCOCC3)n2)cc(C(F)(F)F)c1`: the IC50 is more than 50 µM in assay [1] (Table 6), more than 50 µM in assay [2] (Table 6), more than 50 µM in assay [3] (Table 6) and less than 50 µM in assay [4] (Table 6).
`CCCC/C=C/c1cn2ccnc2c(Nc2cccc(OCC(=O)N(C)C)c2)n1`: the IC50 in assay [1] (Table 5), in assay [2] (Table 5), in assay [3] (Table 5) and in assay [4] (Table 5) was less than 50 µM throughout.
Take `COc1ccc(Nc2nc(-c3ccccc3OC)cn3ccnc23)cn1`: the IC50 in assay [1] (Table 6) was less than 50 µM; in assay [2] (Table 6) it was less than 50 µM; in assay [3] (Table 6) it was more than 50 µM; in assay [4] (Table 6) it was less than 50 µM.
In the case of `COc1ccc(Nc2nc(-c3ccccc3Cl)cn3ccnc23)cn1`, the IC50 is more than 50 µM in assay [1] (Table 6), more than 50 µM in assay [2] (Table 6), more than 50 µM in assay [3] (Table 6) and less than 50 µM in assay [4] (Table 6).
Regarding `c1ccc(-c2cn3ccnc3c(NCc3ccncc3)n2)cc1`, the IC50 was less than 50 µM in assay [1] (Table 6), more than 50 µM in assay [2] (Table 6), more than 50 µM in assay [3] (Table 6) and more than 50 µM in assay [4] (Table 6).
Turning to `O=C(O)c1cccc(-c2cn3ccnc3c(Nc3ccc(N4CCOCC4)cc3)n2)c1`, the IC50 in assay [1] (Table 6), in assay [2] (Table 6), in assay [3] (Table 6) and in assay [4] (Table 6) was less than 50 µM throughout.
Regarding `Cc1ccc(Nc2nc(-c3ccccc3Cl)cn3ccnc23)cc1NS(C)(=O)=O`, the concentration for half-maximal inhibition (IC50) in assay [1] (Table 6) was less than 50 µM; in assay [2] (Table 6), less than 50 µM; in assay [3] (Table 6) it was more than 50 µM; in assay [4] (Table 6), less than 50 µM.
As to `OCCc1ccc(Nc2nc(-c3ccccc3F)cn3ccnc23)cc1`, the IC50 in assay [1] (Table 6), in assay [2] (Table 6), in assay [3] (Table 6) and in assay [4] (Table 6) was less than 50 µM throughout.
For the compound `Brc1cn2ccnc2c(Nc2ccc(N3CCOCC3)cc2)n1` [drawing 82], the IC50 in assay [1] (Table 5), in assay [2] (Table 5), in assay [3] (Table 5) and in assay [4] (Table 5) was less than 50 µM each time.
`Nc1cccc(-c2cn3ccnc3c(Nc3ccccc3)n2)c1` [drawing 87]: the IC50 in assay [1] (Table 6) is less than 50 µM; in assay [2] (Table 6), less than 50 µM; in assay [3] (Table 6), more than 50 µM; in assay [4] (Table 6), less than 50 µM.
For `CC(=O)Nc1ccc(Nc2nc(-c3ccc(O)cc3)cn3ccnc23)cc1`, the IC50 in assay [1] (Table 5), in assay [2] (Table 5), in assay [3] (Table 5) and in assay [4] (Table 5) was less than 50 µM throughout.
Turning to `c1cn2cc(-c3ccc4c(c3)OCO4)nc(Nc3ccc(N4CCOCC4)cc3)c2n1`, the IC50 was less than 50 µM in assay [1] (Table 6), less than 50 µM in assay [2] (Table 6), more than 50 µM in assay [3] (Table 6) and less than 50 µM in assay [4] (Table 6).
As for `FC(F)C(F)(F)Oc1cccc(Nc2nc(-c3cc(C(F)(F)F)cc(C(F)(F)F)c3)cn3ccnc23)c1`, the IC50 in assay [1] (Table 6) is less than 50 µM; in assay [2] (Table 6) it was more than 50 µM; in assay [3] (Table 6), more than 50 µM; in assay [4] (Table 6), more than 50 µM.
Regarding `COc1cncc(-c2cncc(N[C@H](CO)C(C)C)n2)c1` [CYT21507], the IC50 in assay [1] (Table 3), in assay [2] (Table 3), in assay [3] (Table 3) and in assay [4] (Table 3) was less than 50 µM in each case.
Consider `CCCNc1nc(-c2cccc(N)c2)cn2ccnc12`, for which the IC50 in assay [1] (Table 6) was less than 50 µM; in assay [2] (Table 6) it was more than 50 µM; in assay [3] (Table 6), more than 50 µM; in assay [4] (Table 6), more than 50 µM.
Turning to `FC(F)(F)Oc1cccc(-c2cn3ccnc3c(Nc3ccccc3)n2)c1`, the IC50 was more than 50 µM in assay [1] (Table 6), more than 50 µM in assay [2] (Table 6), more than 50 µM in assay [3] (Table 6) and less than 50 µM in assay [4] (Table 6).
Consider `Clc1ccccc1-c1cn2ccnc2c(Nc2ccc3[nH]ccc3c2)n1`, for which the IC50 in assay [1] (Table 6) was less than 50 µM; in assay [2] (Table 6), less than 50 µM; in assay [3] (Table 6), more than 50 µM; in assay [4] (Table 6), less than 50 µM.
As to `c1cncc(CCNc2nc(-c3ccco3)cn3ccnc23)c1`, the IC50 was more than 50 µM in assay [1] (Table 6), more than 50 µM in assay [2] (Table 6), less than 50 µM in assay [3] (Table 6) and more than 50 µM in assay [4] (Table 6).
Take `O=C(NCCO)c1cccc(-c2cn3ccnc3c(Nc3ccc(N4CCOCC4)cc3)n2)c1`: the IC50 in assay [1] (Table 5), in assay [2] (Table 5), in assay [3] (Table 5) and in assay [4] (Table 5) was less than 50 µM in each case.
Turning to `Fc1ccccc1-c1cn2ccnc2c(Nc2ccc(N3CCOCC3)cc2)n1`, the IC50 in assay [1] (Table 6) is less than 50 µM; in assay [2] (Table 6) it was less than 50 µM; in assay [3] (Table 6), more than 50 µM; in assay [4] (Table 6) it was less than 50 µM.
`CCNc1nc(-c2cccc(O)c2)cn2ccnc12`: the IC50 in assay [1] (Table 6) was less than 50 µM; in assay [2] (Table 6) it was more than 50 µM; in assay [3] (Table 6), less than 50 µM; in assay [4] (Table 6), less than 50 µM.
As to `c1ccc(CN2CC[C@@H](Nc3nc(-c4ccc5c(c4)OCO5)cn4ccnc34)C2)cc1`, the 50% inhibitory concentration (IC50) in assay [1] (Table 6) was more than 50 µM; in assay [2] (Table 6), less than 50 µM; in assay [3] (Table 6), more than 50 µM; in assay [4] (Table 6), more than 50 µM.
For the compound `CC(=O)Nc1cccc(-c2cn3ccnc3c(Nc3ccccc3)n2)c1`, the IC50 in assay [1] (Table 6), in assay [2] (Table 6), in assay [3] (Table 6) and in assay [4] (Table 6) was less than 50 µM each time.
As to `COc1cc(-c2cn3ccnc3c(NCc3ccccn3)n2)cc(OC)c1OC`, the IC50 in assay [1] (Table 5), in assay [2] (Table 5), in assay [3] (Table 5) and in assay [4] (Table 5) was less than 50 µM each time.
Consider `Fc1ccccc1-c1cn2ccnc2c(NCCc2cccnc2)n1`, for which the IC50 is less than 50 µM in assay [1] (Table 6), more than 50 µM in assay [2] (Table 6), less than 50 µM in assay [3] (Table 6) and less than 50 µM in assay [4] (Table 6).
In the case of `CCN(CCO)c1ccc(Nc2nc(-c3ccc(F)c(Cl)c3)cn3ccnc23)cc1`, the IC50 in assay [1] (Table 6) was less than 50 µM; in assay [2] (Table 6) it was less than 50 µM; in assay [3] (Table 6), more than 50 µM; in assay [4] (Table 6) it was less than 50 µM.
For the compound `CC(=O)Nc1cccc(-c2cncc(N[C@@H](C)c3ccccc3)n2)c1` [CYT20508], the IC50 in assay [1] (Table 3), in assay [2] (Table 3), in assay [3] (Table 3) and in assay [4] (Table 3) was less than 50 µM throughout.
With `Oc1cccc(-c2cn3ccnc3c(NC3CC3)n2)c1`, the IC50 was less than 50 µM in assay [1] (Table 6), less than 50 µM in assay [2] (Table 6), more than 50 µM in assay [3] (Table 6) and less than 50 µM in assay [4] (Table 6).
With `COc1cc(-c2cncc(NCc3ccccc3)n2)cc(OC)c1OC` [CYT25209], the IC50 in assay [1] (Table 3), in assay [2] (Table 3), in assay [3] (Table 3) and in assay [4] (Table 3) was less than 50 µM throughout.
